Source: article PMC11325084, “Pharmacokinetics and tissue distribution of LN002, a new compound alternative oxidase inhibitor against Cryptosporidium in rats” (Frontiers in Pharmacology, 2024)

Test: Tissue distribution of LN002 after oral administration in rats
Format: in vivo, Sprague–Dawley (SD) rats
Conditions: oral 200 mg/kg; for Cmax / Tmax / half-life: both sexes, Sprague-Dawley, rat; for Cmax / Tmax / half-life / AUC0-24 h: SD rats
Procedure: Thirty SD rats (15 for each sex) were randomly and equally assigned to 5 groups (half male and half female). The rats in each group were euthanized with pentobarbital sodium (a dose of 180 mg/kg) at five different time points: 0.5, 2, 6, 12 and 24 h after oral administration at 200 mg/kg LN002. Subsequently, various tissues, including the heart, liver, spleen, lungs, kidneys, brain, muscles, small intestine, and intestinal contents, were promptly collected ([Verma et al., 2022]). The dissected tissues were rinsed with normal saline, dried with an absorbent paper, homogenized using a tissue homogenizer, and stored at a temperature of −20°C until further analysis.
Tissue samples and intestinal contents were accurately weighed to 0.5 ± 0.02 g in a 10 mL EP tube and added with 2 mL of extraction solvent (acetonitrile: methanol [2:1, v/v]). The extraction solvent was vortexed for 1 min and centrifuged at 6,000 rpm and 4°C for 10 min. The supernatant was transferred to a new test tube and vortexed after adding 2 mL of water. The sample was purified using solid-phase extraction (SPE) using methanol as the extraction solvent. The Poly-Sery MAX SPE Cartridge (Shanghai Anpu Experimental Technology Co., Ltd., Shanghai, China) was added with 3 mL of methanol to activate, 3 mL of water to rinse, and the abovementioned extraction solvent. Afterward, 2 mL of 10% methanol water was poured into extraction columns to elute impurities. Finally, 1.5 mL of methanol was added to elute the compound and collect the eluent. Twenty microliters of the eluent was passed through a 0.22 μm filter membrane and then injected into the HPLC system for analysis.
A Shimadzu LC-20A system (Shimadzu Technologies, Kyoto, Japan) equipped with a LabSolutions system (version 5.1) system was used for HPLC analysis. The separation process utilized an ARD-C18 column (250 mm × 4.6 mm, 5 µm) (Zhongpu Technology Co., Ltd., Fuzhou, China). The analytes were detected using a UV detector at 333 nm. The chromatographic conditions used an isocratic mobile phase that combines methanol (solvent A) and deionized water (solvent B) (75:25, v/v), and they were propelled through the column at a constant flow rate of 1 mL/min, ensuring uniform separation. The injection volume was 20 μL. The temperature of the column was set to 40°C.
Pharmacokinetic data were obtained via non-compartmental PK analysis of total concentration versus time profiles for plasma using Phoenix WinNonlin 8.2 (Certara, L.P., Princeton, NJ, United States). Statistical analysis and graphing were undertaken using GraphPad Prism 9.5 for Windows (GraphPad Software, Inc., La Jolla, CA, United States).

[1] = intestinal contents, n = 6, mean ± SD

Cmax (brain, n = 6, mean ± SD): 456 ± 80.9 ng/g
Tmax (brain, n = 6, mean ± SD): 0.58 ± 0.19 h
half-life (brain, n = 6, mean ± SD): 5.2 ± 2.31 h
Cmax (heart, n = 6, mean ± SD): 972 ± 165 ng/g
Tmax (heart, n = 6, mean ± SD): 0.57 ± 0.11 h
half-life (heart, n = 6, mean ± SD): 6.82 ± 1.65 h
Cmax [1]: 4.45e+06 ng/g
Tmax [1]: 3.33 ± 1.6 h
half-life [1]: 1.64 ± 0.01 h
Cmax (intestine, n = 6, mean ± SD): 607000 ng/g
Tmax (intestine, n = 6, mean ± SD): 2.67 ± 1.49 h
half-life (intestine, n = 6, mean ± SD): 5.48 ± 1.48 h
Tmax (kidney, n = 6): 0.5 h
Cmax (kidney, n = 6, mean ± SD): 561 ± 135 ng/g
half-life (kidney, n = 6, mean ± SD): 5.03 ± 1.52 h
Cmax (liver, n = 6, mean ± SD): 478 ± 157 ng/g
Tmax (liver, n = 6, mean ± SD): 0.67 ± 0.19 h
half-life (liver, n = 6, mean ± SD): 5.54 ± 0.66 h
Cmax (lung, n = 6, mean ± SD): 8700 ± 1410 ng/g
Tmax (lung, n = 6, mean ± SD): 2.09 ± 0.43 h
half-life (lung, n = 6, mean ± SD): 5.43 ± 1.6 h
Cmax (muscle, n = 6, mean ± SD): 3980 ± 589 ng/g
Tmax (muscle, n = 6, mean ± SD): 0.58 ± 0.19 h
half-life (muscle, n = 6, mean ± SD): 6.3 ± 2.71 h
Tmax (spleen, n = 6): 0.5 h
Cmax (spleen, n = 6, mean ± SD): 645 ± 187 ng/g
half-life (spleen, n = 6, mean ± SD): 5.8 ± 1.93 h
AUC0-24 h (brain, n = 6, mean ± SD): 1328.60 ± 176.19 h⋅ng/g
AUC0-24 h (heart, n = 6, mean ± SD): 3855.84 ± 323.04 h⋅ng/g
AUC0-24 h [1]: 35080673.50 ± 644,065.57 h⋅ng/g
AUC0-24 h (intestine, n = 6, mean ± SD): 2185750.70 ± 149,399.23 h⋅ng/g
AUC0-24 h (kidney, n = 6, mean ± SD): 1781.24 ± 453.85 h⋅ng/g
AUC0-24 h (liver, n = 6, mean ± SD): 4051.62 ± 586.44 h⋅ng/g
AUC0-24 h (lung, n = 6, mean ± SD): 84,344.09 ± 9677.76 h⋅ng/g
AUC0-24 h (muscle, n = 6, mean ± SD): 12,634.31 ± 2366.24 h⋅ng/g
AUC0-24 h (spleen, n = 6, mean ± SD): 2280.55 ± 418.06 h⋅ng/g
Compound: N#C/C(=C\c1c[nH]nc1-c1ccccc1)c1nn(-c2ccccc2)c(N)c1C#N [LN002, 5-amino-3-[1-cyano-2-(3-phenyl-4-vinopyrazole))-1-phenyl-4-vinopyrazole]
Rank order of concentration in tissues and intestinal contents (rats): intestinal contents, followed by the small intestine, lung, muscle, heart, liver, spleen, kidney, and brain
Detection in tissues at the last time point (in words) (rats, 24 h): detected at 24 h in all tissues and intestinal contents
